Results taken from patent US20120264811A1, “Elongator Proteins and Use Thereof as DNA Demethylases” (The University of North Carolina at Chapel Hill, priority 2009, published 2012).
“Also recorded” adds a separate entry of the source.

What was measured:
[1] = system: NIH3T3 cells that stably express CxxC-EGFP; test: CxxC-EGFP reporter dot formation in NIH3T3 cells; assay type: cell-based, mouse; settings: 5 μM for 72 hours
[2] = system: paternal DNA demethylation; test: chemical injection into oocytes, paternal DNA demethylation; assay type: cell-based, mouse; settings: approximately 10 pl of 10 μM in ethanol injected; final concentration estimated 0.4 μM
Experimental: For chemical injection, approximately 10 pl of 3,5-Di-tert-butyltoluene and butylated hydroxytoluence (Sigma Aldrich) at the concentration of 10 μM in ethanol were injected with H3.3-mRFP1 mRNA. The final chemical concentration is estimated as
0.4 μM based on an estimated mouse oocyte volume of 270 pl. The final estimated ethanol concentration is about 4%. For determination of knockdown efficiency, RNA isolated from 10-20 zygotes at PN4-5 stage was used for reverse transcription using the SuperScript III Cell Direct cDNA synthesis kit (Invitrogen) followed by quantitative PCR (qPCR) using SYBR GreenER (Invitrogen). Results were normalized with 18S rRNA as a standard.

| Compound | number and intensity of GFP bright dots (nuclear dot-formation of CxxC probe) [1] | paternal DNA demethylation after chemical injection [2] |
| --- | --- | --- |
| Nc1ncn([C@H]2C[C@H](O)[C@@H](CO)O2)c(=O)n1 [5-Aza-dC, 5-Aza-2′ deoxycytidine] | clear increase; also recorded: Enhanced nuclear dot-formation | – |
| Cc1cc(C(C)(C)C)c(O)c(C(C)(C)C)c1 [butylated hydroxytoluene] | – | blocked DNA demethylation |
